Values after ≈ are worked out from the molar mass of the structure shown.
How the values were obtained:
Staphylococcus aureus [1] = assay: Antibacterial activity against methicillin resistant Staphylococcus aureus SR3637; type: functional
[2] = target: T1, Phospho-N-acetylmuramoyl-pentapeptide-transferase (Staphylococcus aureus, UniProt P0C1R8); assay: Inhibition of MraY in Staphylococcus aureus
T1 sequence (P0C1R8 whole entry): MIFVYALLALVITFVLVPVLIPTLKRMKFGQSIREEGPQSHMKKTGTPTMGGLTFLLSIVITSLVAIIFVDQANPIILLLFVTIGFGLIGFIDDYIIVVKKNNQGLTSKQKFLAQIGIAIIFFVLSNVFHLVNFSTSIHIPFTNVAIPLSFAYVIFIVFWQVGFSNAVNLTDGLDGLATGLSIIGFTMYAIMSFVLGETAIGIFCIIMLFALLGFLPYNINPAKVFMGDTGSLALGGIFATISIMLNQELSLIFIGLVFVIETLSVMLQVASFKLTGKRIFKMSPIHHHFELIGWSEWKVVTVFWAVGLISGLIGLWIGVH

Pseudomonas aeruginosa [3] = assay: Antibacterial activity against Pseudomonas aeruginosa after 20 hrs by NCCLS-based two-fold broth dilution method; type: functional
Enterococcus faecalis [4] = assay: Antibacterial activity against t Enterococcus faecalis VRE after 20 hrs by NCCLS-based two-fold broth dilution method; type: functional; conditions: read-out: MIC
Enterococcus faecium [5] = assay: Antibacterial activity against t Enterococcus faecium VRE after 20 hrs by NCCLS-based two-fold broth dilution method; type: functional; conditions: read-out: MIC
Escherichia coli [6] = assay: Antibacterial activity against Escherichia coli after 20 hrs by NCCLS-based two-fold broth dilution method; type: functional
Enterococcus faecium [7] = assay: Antibacterial activity against Enterococcus faecium SR7917 (VRE); type: functional
Enterococcus faecalis [8] = assay: Antibacterial activity against Enterococcus faecalis SR7914 (VRE); type: functional
Staphylococcus aureus [9] = assay: Antibacterial activity against methicillin resistant Staphylococcus aureus after 20 hrs by NCCLS-based two-fold broth dilution method; type: functional; conditions: read-out: MIC
Staphylococcus aureus [10] = assay: Antibacterial activity against methicillin susceptible Staphylococcus aureus ATCC 29213; type: functional
Enterococcus faecalis [11] = assay: Antibacterial activity against t Enterococcus faecalis after 20 hrs by NCCLS-based two-fold broth dilution method; type: functional; conditions: read-out: MIC
Enterococcus faecalis [12] = assay: Antibacterial activity against Enterococcus faecalis ATCC 29212; type: functional
Enterococcus faecium [13] = assay: Antibacterial activity against Enterococcus faecium ATCC 19434; type: functional
Escherichia coli [14] = assay: Antibacterial activity against Escherichia coli ATCC 25922; type: functional
Staphylococcus aureus [15] = assay: Antibacterial activity against methicillin susceptible Staphylococcus aureus after 20 hrs by NCCLS-based two-fold broth dilution method; type: functional; conditions: read-out: MIC
Pseudomonas aeruginosa [16] = assay: Antibacterial activity against Pseudomonas aeruginosa PAO1 deltamexB; type: functional
Haemophilus influenzae [17] = assay: Antibacterial activity against Haemophilus influenzae after 20 hrs by NCCLS-based two-fold broth dilution method; type: functional
Streptococcus pneumoniae = assay: Antibacterial activity against Streptococcus pneumoniae; type: functional
Pseudomonas aeruginosa [18] = assay: Antibacterial activity against Pseudomonas aeruginosa YY165; type: functional
Acinetobacter baumannii = assay: Antibacterial activity against Acinetobacter baumannii ATCC 19606; type: functional; conditions: ATCC 19606 = CIP 70.34 = JCM 6841
Enterococcus faecium [19] = assay: Antibacterial activity against t Enterococcus faecium after 20 hrs by NCCLS-based two-fold broth dilution method; type: functional
Haemophilus influenzae [20] = assay: Antibacterial activity against Haemophilus influenzae ATCC 10211; type: functional
Escherichia coli [21] = assay: Antibacterial activity against Escherichia coli; type: functional
Staphylococcus aureus [22] = assay: Antibacterial activity against Staphylococcus aureus; type: functional
Mycobacterium avium = assay: Antibacterial activity against Mycobacterium avium; type: functional
[23] = test system: Mycobacterium tuberculosis; assay: Antibacterial activity against Mycobacterium tuberculosis; type: functional
[24] = test system: Mycolicibacterium fortuitum; assay: Antibacterial activity against Mycobacterium fortuitum; type: functional
[25] = test system: Mycolicibacterium smegmatis; assay: Antibacterial activity against Mycobacterium smegmatis; type: functional
Bacillus subtilis = assay: Antibacterial activity against Bacillus subtilis; type: functional
[26] = test system: Mycobacterium intracellulare; assay: Antibacterial activity against Mycobacterium intracellulare; type: functional
[27] = target: T2, Phospho-N-acetylmuramoyl-pentapeptide-transferase (Aquifex aeolicus (strain VF5), UniProt O66465); assay: Inhibition of MraY in Aquifex aeolicus
T2 sequence (O66465 whole entry): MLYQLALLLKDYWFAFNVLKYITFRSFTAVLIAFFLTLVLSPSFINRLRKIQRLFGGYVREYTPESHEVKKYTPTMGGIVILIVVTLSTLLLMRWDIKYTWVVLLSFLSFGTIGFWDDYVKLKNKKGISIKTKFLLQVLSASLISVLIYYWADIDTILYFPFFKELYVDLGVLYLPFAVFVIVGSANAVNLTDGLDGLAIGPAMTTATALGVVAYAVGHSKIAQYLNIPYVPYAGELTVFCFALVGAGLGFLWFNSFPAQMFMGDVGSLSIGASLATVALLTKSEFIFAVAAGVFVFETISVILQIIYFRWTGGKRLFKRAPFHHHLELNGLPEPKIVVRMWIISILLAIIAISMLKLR

Staphylococcus aureus [28] = assay: Antibacterial activity against methicillin resistant Staphylococcus aureus; type: functional, organism-based

## CCCCCCCCCCCCCCCC(=O)N[C@@H]1CCN[C@@H]([C@H](O[C@@H]2O[C@H](CN)[C@@H](O)[C@H]2O)[C@H]2O[C@@H](n3ccc(=O)[nH]c3=O)[C@H](O)[C@@H]2O)C1
Staphylococcus aureus [1]
  MIC: 16 µg/mL (≈ 22.5 µM)
[2]
  IC50: 24 µM
Pseudomonas aeruginosa [3]
  MIC: 32 µg/mL (≈ 45 µM)
Enterococcus faecalis [4]
  MIC: 2 µg/mL (≈ 2.81 µM)
Enterococcus faecium [5]
  MIC: 8 µg/mL (≈ 11.2 µM)
Escherichia coli [6]
  MIC: 4 µg/mL (≈ 5.62 µM)
Enterococcus faecium [7]
  MIC: 4 µg/mL (≈ 5.62 µM)
Enterococcus faecalis [8]
  MIC: 2 µg/mL (≈ 2.81 µM)
Staphylococcus aureus [9]
  MIC: 16 µg/mL (≈ 22.5 µM)
Staphylococcus aureus [10]
  MIC: 8 µg/mL (≈ 11.2 µM)
Enterococcus faecalis [11]
  MIC: 4 µg/mL (≈ 5.62 µM)
Enterococcus faecalis [12]
  MIC: 4 µg/mL (≈ 5.62 µM)
Enterococcus faecium [13]
  MIC: 8 µg/mL (≈ 11.2 µM)
Escherichia coli [14]
  MIC: > 64 µg/mL
Staphylococcus aureus [15]
  MIC: 8 µg/mL (≈ 11.2 µM)
Pseudomonas aeruginosa [16]
  MIC: > 64 µg/mL
Haemophilus influenzae [17]
  MIC: 32 µg/mL (≈ 45 µM)
Streptococcus pneumoniae
  MIC: 64 µg/mL (≈ 89.9 µM)
Pseudomonas aeruginosa [18]
  MIC: 32 µg/mL (≈ 45 µM)
Acinetobacter baumannii
  MIC: > 64 µg/mL
Enterococcus faecium [19]
  MIC: 2 µg/mL (≈ 2.81 µM)
Haemophilus influenzae [20]
  MIC: 32 µg/mL (≈ 45 µM)

## CO[C@@H]1[C@@H](OC)[C@H](C)O[C@@H](OC(=O)C[C@@H](C)CC(=O)O[C@@H](CCCCCCCCCCC(C)C)CC(=O)O[C@H]2CN(C)[C@@H]([C@H](O[C@@H]3O[C@H](CN)[C@@H](O)[C@H]3O)[C@H]3O[C@@H](n4ccc(=O)[nH]c4=O)[C@H](O)[C@@H]3O)C(=O)N(C)[C@@H]2C(=O)O)[C@@H]1OC
Escherichia coli [21]
  MIC: 100 µg/mL (≈ 87.2 µM)
Staphylococcus aureus [22]
  MIC: 1.56 to 6.25 µg/mL (≈ 1.36 to 5.45 µM)
Mycobacterium avium
  MIC: 6.25 to 50 µg/mL (≈ 5.45 to 43.6 µM)
[23]
  MIC: 3.13 to 12.5 µg/mL (≈ 2.73 to 10.9 µM)
[24]
  MIC: 50 µg/mL (≈ 43.6 µM)
[25]
  MIC: 1.56 to 3.13 µg/mL (≈ 1.36 to 2.73 µM)
Bacillus subtilis
  MIC: 6.25 to 12.5 µg/mL (≈ 5.45 to 10.9 µM)
[26]
  MIC: 1.56 to 25 µg/mL (≈ 1.36 to 21.8 µM)

## NC[C@H]1O[C@@H](O[C@H]([C@H]2O[C@@H](n3ccc(=O)[nH]c3=O)[C@H](O)[C@@H]2O)n2cc(CCCCCCCCCCOc3ccc(C(=O)c4ccccc4)cc3)nn2)[C@H](O)[C@@H]1O
[27]
  IC50: 25 µM
Staphylococcus aureus [28]
  MIC: 8 µg/mL (≈ 10.3 µM)

From ChEMBL document CHEMBL4402510, “Caprazamycins: Promising lead structures acting on a novel antibacterial target MraY” (Eur J Med Chem, 2019)
